One assay addresses T1, receptor tyrosine kinase (Homo sapiens, UniProt P00533).
T1 construct: Receptor tyrosine kinase was obtained in partially purified form from A-431 cells; endogenous in cells; host or cells: A-431 cells (human vulval carcinoma), Triton X-100 solubilised membrane extract
Description: in vitro inhibition of the enzyme receptor tyrosine kinase (Test (a)). Conditions: enzyme from A-431 cells, EGF stimulated. It counts as biochemical. On the procedure:
(a) An in vitro assay which determines the ability of a test compound to inhibit the enzyme receptor tyrosine kinase. Receptor tyrosine kinase was obtained in partially purified form from A-431 cells (derived from human vulval carcinoma) by procedures related to those described by Carpenter et. al., J. Biol. Chem., 1979, 254, 4884, Cohen et al., J. Biol. Chem., 1982, 257, 1523 and by Braun et al., J. Biol. Chem., 1984, 259, 2051.
A-431 cells were grown to confluence using Dulbecco's modified Eagle's medium (DMEM) containing 5% fetal calf serum (FCS). The obtained cells were homogenised in a hypotonic borate/EDTA buffer at pH 10.1. The homogenate was centrifuged at 400 g for 10 minutes at 0°-4° C. The supernatant was centrifuged at 25,000 g for 30 minutes at 0°-4° C. The pelleted material was suspended in 30 mM Hepes buffer at pH 7.4 containing 5% glycerol, 4 mM benzamidine and 1% Triton X-100, stirred for 1 hour at 0°-4° C., and recentrifuged at 100,000 g for 1 hour at 0°-4° C. The supernatant, containing solubilised receptor tyrosine kinase, was stored in liquid nitrogen.
For test purposes 40 μl of the enzyme solution so obtained was added to a mixture of 400 μl of a mixture of 150 mM Hepes buffer at pH 7.4, 500 μM sodium orthovanadate, 0.1% Triton X-100, 10% glycerol, 200 μl water, 80 μl of 25 mM DTT and 80μl of a mixture of 12.5 mM manganese chloride, 125 mM magnesium chloride and distilled water. There was thus obtained the test enzyme solution. […]
The test compound/EGF mixture solution (5 μl) was added to the test enzyme solution (10 μl) and the mixture was incubated at 0°-4° C. for 30 minutes. […] Radioactivity present in the filter paper was measured using a liquid scintillation counter (Sequence A). […]
Receptor tyrosine kinase inhibition was calculated as follows: [formula]
The extent of inhibition was then determined at a range of concentrations of test compound to give an IC50 value.

For assay [1], the system named is human naso-pharyngeal cancer cell line KB. In words: in vitro inhibition of the growth of the human naso-pharyngeal cancer cell line KB (Test (b)). It counts as cell-based. Conditions: 72 h, KB cells, EGF (10 ng/ml), 3 days, MTT. On the procedure: (b) An in vitro assay which determines the ability of a test compound to inhibit the growth of the human naso-pharyngeal cancer cell line KB.
KB cells were seeded into wells at a density of 1×10^4 -1.5×10^4 cells per well and grown for 24 hours in DMEM supplemented with 5% FCS (charcoal-stripped). Cell growth was determined after incubation for 3 days by the extent of metabolism of MTT tetrazolium dye to furnish a bluish colour. Cell growth was then determined in the presence of EGF (10 ng/ml) or in the presence of EGF (10 ng/ml) and a test compound at a range of concentrations. An IC50 value could then be calculated.

The subject of assay [2] is human mammary carcinoma which expresses epidermal growth factor (EGF) receptor tyrosine kinase. Conditions: athymic nude mice; Toi et al., 1990; cited from earlier work.
Assay [3] deals with another carcinoma which does not express EGF receptor tyrosine kinase. Conditions: Toi et al., 1990; cited from earlier work.
A further assay relates to liver hepatocyte growth. Description: in vivo inhibition of TGFα-stimulated liver hepatocyte growth in male rats (Test (c)). Conditions: Rattus norvegicus, po. As for the experimental part: (c) An in vivo assay in a group of male rats which determines the ability of a test compound (usually administered orally as a ball-milled suspension in 0.5% polysorbate) to inhibit the stimulation of liver hepatocyte growth caused by the administration of the growth factor TGFα (400 μg/kg subcutaneously, usually dosed twice, 3 and 7 hours respectively after the administration of the test compound).
In a control group of rats, the administration of TGFα causes on average a 5-fold stimulation of liver hepatocyte growth.
Cell-growth in the control and test animals is determined as follows:
On the morning of the day after the dosing of the test compound (or 0.5% polysorbate in the control group), the animals are dosed with bromodeoxyuridine (BrdU; 100 mg/kg intraperitoneally). The animals are killed four hours later and the livers are excised.
Further tests were carried out using a range of doses of the test compounds to allow the calculation of an approximate ED50 value for the inhibition of liver hepatocyte proliferation as determined by inhibition of the uptake of BrdU.

SMILES strings stand for the structures.

T1 sequence (P00533 25-1210): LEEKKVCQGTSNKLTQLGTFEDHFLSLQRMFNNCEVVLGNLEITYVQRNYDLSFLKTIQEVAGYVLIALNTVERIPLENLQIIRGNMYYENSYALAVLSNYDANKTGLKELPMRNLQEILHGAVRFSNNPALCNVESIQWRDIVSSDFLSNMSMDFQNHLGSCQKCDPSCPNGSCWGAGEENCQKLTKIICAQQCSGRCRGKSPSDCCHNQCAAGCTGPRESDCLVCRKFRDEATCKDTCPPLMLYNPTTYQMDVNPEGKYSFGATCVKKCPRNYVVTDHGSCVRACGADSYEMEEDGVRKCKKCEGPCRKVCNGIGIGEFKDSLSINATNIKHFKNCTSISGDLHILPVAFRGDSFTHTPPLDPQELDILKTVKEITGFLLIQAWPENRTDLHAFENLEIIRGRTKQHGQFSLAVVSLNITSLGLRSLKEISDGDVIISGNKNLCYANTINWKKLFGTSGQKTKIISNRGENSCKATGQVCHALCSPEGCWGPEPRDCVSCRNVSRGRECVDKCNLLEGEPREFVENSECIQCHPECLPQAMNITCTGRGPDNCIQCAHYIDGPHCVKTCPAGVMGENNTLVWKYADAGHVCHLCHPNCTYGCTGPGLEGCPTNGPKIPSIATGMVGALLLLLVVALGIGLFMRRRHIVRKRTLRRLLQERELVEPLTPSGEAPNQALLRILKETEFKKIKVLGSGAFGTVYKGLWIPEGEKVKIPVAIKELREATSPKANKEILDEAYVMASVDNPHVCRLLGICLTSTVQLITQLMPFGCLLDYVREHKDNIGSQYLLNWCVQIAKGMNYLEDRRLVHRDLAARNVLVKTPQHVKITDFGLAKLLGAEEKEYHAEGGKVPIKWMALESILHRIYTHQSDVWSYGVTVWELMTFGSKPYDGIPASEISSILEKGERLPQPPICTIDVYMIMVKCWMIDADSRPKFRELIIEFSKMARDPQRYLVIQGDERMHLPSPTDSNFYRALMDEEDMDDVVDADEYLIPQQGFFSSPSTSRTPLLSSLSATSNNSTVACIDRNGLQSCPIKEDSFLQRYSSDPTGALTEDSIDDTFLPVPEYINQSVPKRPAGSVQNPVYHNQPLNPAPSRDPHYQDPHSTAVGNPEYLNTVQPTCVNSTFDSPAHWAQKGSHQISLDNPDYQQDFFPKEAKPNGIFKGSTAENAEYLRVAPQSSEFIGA
T1 sequence (P01133 971-1023 partner limits assumed): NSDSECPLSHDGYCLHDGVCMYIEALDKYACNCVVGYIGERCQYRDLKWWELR

Take `Cc1cccc(Nc2ncnc3cc(F)c(NC(=O)CCl)cc23)c1` [6-(2-chloroacetamido)-7-fluoro-4-(3'-methylanilino)quinazoline]: the IC50 stood at 10 nM on receptor tyrosine kinase and 20 nM in assay [1].

In the case of `O=CN/C=C/c1cc(O)ccc1O` [erbstatin], the “growth of transplanted human mammary carcinoma expressing EGF receptor tyrosine kinase” value in assay [2] was “specifically attenuates the growth”. Also, the “growth of another carcinoma which does not express EGF receptor tyrosine kinase” value in assay [3] is “without effect on the growth”.

In the case of `COc1cc2c(Nc3ccc(F)c(Cl)c3)ncnc2cc1F` [4-(3'-chloro-4'-fluoroanilino)-7-fluoro-6-methoxyquinazoline], the ED50 in the assay with liver hepatocyte growth is less than 12.5 mg/kg. The IC50 was 70 nM against receptor tyrosine kinase and 530 nM in assay [1].

Molecule `Cc1cccc(Nc2ncnc3cc(F)c(N)cc23)c1` [6-amino-7-fluoro-4-(3'-methylanilino)quinazoline] gave a 50% effective dose (ED50) in the assay on liver hepatocyte growth of less than 40 mg/kg. The IC50 on receptor tyrosine kinase turned out to be 75 nM; in assay [1], 680 nM.

The IC50 is the midpoint of a concentration-inhibition curve. Read a low IC50 as inhibition by little substance. By ED50 is commonly meant the dose at which the effect has come halfway, by size or by number of responders. Higher therefore signals a need for a large dose.
